*1 amine or outer side, *2 acyl side, *3 side chain or, on linkers, in order; H or OH if unused. [ ]: non-standard residue; d: D form. Cys(Acm) = CC(=O)NCSC[C@H](N[*:1])C(=O)[*:2]; Phe(4-F) = N[C@@H](Cc1ccc(F)cc1)C(=O)O; Nle = CCCC[C@H](N)C(=O)O; Orn = NCCC[C@H](N)C(=O)O

By EC50 is commonly meant the concentration needed to bring the measured effect to its halfway point. The low end stands for higher potency in that assay, the high end for lower potency in that assay.

Assay [1] relates to guinea pigs. Nature of the assay: In vivo bronchodilator activity by tracheal instillation against histamine-induced bronchoconstriction. Also on record: species or system guinea pig. Particulars: 100 μl, anesthetized male Hartley guinea pigs, histamine challenge 50 μg/kg i.v., inhibition of tracheal pressure increase. Here is the method: The in vivo bronchodilator activity of VIP analogs in guinea pigs was assessed by the tracheal instillation route of administration. This technique utilized male guinea pigs (Hartley strain, Charles River) weighing 400-600 g. Animals were anesthetized with urethane (2 g/kg) intraperitoneally and a polyethylene cannula was inserted into the jugular vein for intravenous drug administration.
The animals were tracheotomized and dosing solutions of distilled water or test compound dissolved in distilled water were administered into the trachea, approximately three-quarter the distance to the carina with a pipette. The concentration of the dosing solution was adjusted to deliver a constant volume of 100 μl. The animals were placed supine for one minute to aid drug delivery to the lung. One minute later, spontaneous breathing was arrested with succinylcholine chloride (1.2 mg/kg) administered intravenously, and the animals were ventilized with a Harvard Model 680 small animal respirator set at 40 breaths/min and 4.0 cm^3 stoke volume. The animals were challenged with a maximal constrictory dose of histamine (50 μg/kg, i.v.) and tracheal pressure (cm of water) was recorded from a Statham pressure transducer (P 32 AA).
The change in tracheal pressure was averaged for at least 3 control and 3 drug-treated animals and percent inhibition was calculated. The relative potency of compounds administered by the instillation route was determined by administering various doses of test compound and calculating the median inhibitory dose (ID50 value). The ID50 was determined from log dose-reasons curves generated by at least 3 doses that caused inhibitory effects between 10% and 90%. The correlation coefficient for the regression line of each antagonist was always greater than 0.95.
For determination of the time course of inhibition for various compounds, the time between administration of compound and challenge with histamine was varied. The time course of activity was calculated as the time when inhibition decreased to 40%.

The test system of assay [2] is guinea pig tracheal smooth muscle. Nature of the assay: Tracheal relaxant activity of VIP analogs on isolated guinea pig tracheal rings. To be noted: cumulative concentration response; responses as % of maximum response to VIP (10^-6 M=100%); at least three tissues pooled; linear regression. The assay is classed as cell-based. Here is the method:
The relaxant activity of the VIP analogs was studied in a model utilizing guinea pig trachea. [Wasserman, M. A. et al., in Vasoactive Intestinal Peptide, S. I. Said, ed., Raven Press, N.Y. 1982, pp 177-184]; All tissues were taken from male albino guinea pig weighing 400-600 g, anesthesized with urethane (2 g/kg, i.p.). After exanguination, the trachea were removed and divided into four ring segments (3 mm length). Each ring was suspended by 30 gauge stainless steel wires in a 10 mL jacketed tissue bath and attached via 4-0 silk thread to a Grass force displacement transducer (model FT03C, Grass Instruments Co., Quincy, Ma), for isometric recording of tension. The smooth muscle was bathed in modified Krebs solution of the following composition: NaCl, 120 mM; KCl, 4.7 mM; CaCl2, 2.5 mM; MgSO.4 7H2 O, 1.2 mM; NaHCO3, 25 mM; K2 HPO4 monobasic, 1.2 mM; and dextrose, 10 mM. Tissue baths were maintained at 37° C. and constantly bubbled with 95% O2 and 5% CO2. Responses were recorded on an 8 channel and a 4 channel Hewlett-Packard (model 7702B and 7754A, respectively) recorder (Hewlett-Packard, Paramus, N.J.). […] Frequent readjustments of tension were required during the 60 minute stabilization period which followed. Tissues were rinsed at 15 minute intervals.
Cumulative concentration response curves were obtained for each tissue by successive […] increases in the bath concentration of VIP or VIP analogs according to the method of VanRossum [Arch. Int. Pharmacodyn., 143, 299-330 (1963)]. Only one cumulative dose response curve was obtained on a single tissue. To minimize variability between tissues, relaxant responses were expressed as a percentage of the maximum response obtained to VIP (10^-6 M=100%) added at the end of each concentration response experiment. Responses obtained from at least three tissues were pooled and EC50 values were determined by linear regression.

In the case of “Ac--[p-F--Phe^6, Glu^8, Lys^12, Nle^17, Ala^25, Leu^26, Lys^27,28, Gly^29,30, Thr^31 ]--VIP (Ac-HSDAV[Phe(4-F)]TENYTKLRKQ[Nle]AVKKYLNALKKGGT-NH2; SMILES CCCC[C@H](NC(=O)[C@H](CCC(N)=O)NC(=O)[C@H](CCCCN)NC(=O)[C@H](CCCNC(=N)N)NC(=O)[C@H](CC(C)C)NC(=O)[C@H](CCCCN)NC(=O)[C@@H](NC(=O)[C@H](Cc1ccc(O)cc1)NC(=O)[C@H](CC(N)=O)NC(=O)[C@H](CCC(=O)O)NC(=O)[C@@H](NC(=O)[C@H](Cc1ccc(F)cc1)NC(=O)[C@@H](NC(=O)[C@H](C)NC(=O)[C@H](CC(=O)O)NC(=O)[C@H](CO)NC(=O)[C@H](Cc1c[nH]cn1)NC(C)=O)C(C)C)[C@@H](C)O)[C@@H](C)O)C(=O)N[C@@H](C)C(=O)N[C@H](C(=O)N[C@@H](CCCCN)C(=O)N[C@@H](CCCCN)C(=O)N[C@@H](Cc1ccc(O)cc1)C(=O)N[C@@H](CC(C)C)C(=O)N[C@@H](CC(N)=O)C(=O)N[C@@H](C)C(=O)N[C@@H](CC(C)C)C(=O)N[C@@H](CCCCN)C(=O)N[C@@H](CCCCN)C(=O)NCC(=O)NCC(=O)N[C@H](C(N)=O)[C@@H](C)O)C(C)C) [Ac--(SEQ ID NO: 17)--NH2]”, the “Bronchodilator activity in guinea pigs, ED50” value (shortened to “Bronchodilator activity”) in assay [1] worked out at 0.12 µg. The substance also had an EC50 in assay [2] of 0.33 nM.

“Ac--[p-F--Phe^6, Glu^8, Lys^12, Nle^17, Ala^19, Val^26, Thr^28, Gly^29,30, Cys(Acm)^31 ]--VIP (Ac-HSDAV[Phe(4-F)]TENYTKLRKQ[Nle]AAKKYLNSVLTGG[Cys(Acm)]-NH2; SMILES CCCC[C@H](NC(=O)[C@H](CCC(N)=O)NC(=O)[C@H](CCCCN)NC(=O)[C@H](CCCNC(=N)N)NC(=O)[C@H](CC(C)C)NC(=O)[C@H](CCCCN)NC(=O)[C@@H](NC(=O)[C@H](Cc1ccc(O)cc1)NC(=O)[C@H](CC(N)=O)NC(=O)[C@H](CCC(=O)O)NC(=O)[C@@H](NC(=O)[C@H](Cc1ccc(F)cc1)NC(=O)[C@@H](NC(=O)[C@H](C)NC(=O)[C@H](CC(=O)O)NC(=O)[C@H](CO)NC(=O)[C@H](Cc1c[nH]cn1)NC(C)=O)C(C)C)[C@@H](C)O)[C@@H](C)O)C(=O)N[C@@H](C)C(=O)N[C@@H](C)C(=O)N[C@@H](CCCCN)C(=O)N[C@@H](CCCCN)C(=O)N[C@@H](Cc1ccc(O)cc1)C(=O)N[C@@H](CC(C)C)C(=O)N[C@@H](CC(N)=O)C(=O)N[C@@H](CO)C(=O)N[C@H](C(=O)N[C@@H](CC(C)C)C(=O)N[C@H](C(=O)NCC(=O)NCC(=O)N[C@@H](CSCNC(C)=O)C(N)=O)[C@@H](C)O)C(C)C) [Ac--(SEQ ID NO: 67)--NH2]”: the “Bronchodilator activity” value in assay [1] is 0.30 µg. This substance also registered an EC50 in assay [2] of 1.9 nM.

Take “Ac--[Glu^8, Lys^12, Nle^17, Ala^19, Ala^25, Leu^26, Lys^27,28, Ala^29-31 ]--VIP (Ac-HSDAVFTENYTKLRKQ[Nle]AAKKYLNALKKAAA-NH2; SMILES CCCC[C@H](NC(=O)[C@H](CCC(N)=O)NC(=O)[C@H](CCCCN)NC(=O)[C@H](CCCNC(=N)N)NC(=O)[C@H](CC(C)C)NC(=O)[C@H](CCCCN)NC(=O)[C@@H](NC(=O)[C@H](Cc1ccc(O)cc1)NC(=O)[C@H](CC(N)=O)NC(=O)[C@H](CCC(=O)O)NC(=O)[C@@H](NC(=O)[C@H](Cc1ccccc1)NC(=O)[C@@H](NC(=O)[C@H](C)NC(=O)[C@H](CC(=O)O)NC(=O)[C@H](CO)NC(=O)[C@H](Cc1c[nH]cn1)NC(C)=O)C(C)C)[C@@H](C)O)[C@@H](C)O)C(=O)N[C@@H](C)C(=O)N[C@@H](C)C(=O)N[C@@H](CCCCN)C(=O)N[C@@H](CCCCN)C(=O)N[C@@H](Cc1ccc(O)cc1)C(=O)N[C@@H](CC(C)C)C(=O)N[C@@H](CC(N)=O)C(=O)N[C@@H](C)C(=O)N[C@@H](CC(C)C)C(=O)N[C@@H](CCCCN)C(=O)N[C@@H](CCCCN)C(=O)N[C@@H](C)C(=O)N[C@@H](C)C(=O)N[C@@H](C)C(N)=O) [Ac--(SEQ ID NO: 21)--NH2]”: the “Bronchodilator activity” value in assay [1] was found to be 0.03 µg. The EC50 in assay [2] is 0.1 nM.

On to “Ac--[Glu^8, Lys^12, Nle^17, Val^26, Thr^28, Gly^29,30, Cys(Acm)^31 ]--VIP (Ac-HSDAVFTENYTKLRKQ[Nle]AVKKYLNSVLTGG[Cys(Acm)]-NH2; SMILES CCCC[C@H](NC(=O)[C@H](CCC(N)=O)NC(=O)[C@H](CCCCN)NC(=O)[C@H](CCCNC(=N)N)NC(=O)[C@H](CC(C)C)NC(=O)[C@H](CCCCN)NC(=O)[C@@H](NC(=O)[C@H](Cc1ccc(O)cc1)NC(=O)[C@H](CC(N)=O)NC(=O)[C@H](CCC(=O)O)NC(=O)[C@@H](NC(=O)[C@H](Cc1ccccc1)NC(=O)[C@@H](NC(=O)[C@H](C)NC(=O)[C@H](CC(=O)O)NC(=O)[C@H](CO)NC(=O)[C@H](Cc1c[nH]cn1)NC(C)=O)C(C)C)[C@@H](C)O)[C@@H](C)O)C(=O)N[C@@H](C)C(=O)N[C@H](C(=O)N[C@@H](CCCCN)C(=O)N[C@@H](CCCCN)C(=O)N[C@@H](Cc1ccc(O)cc1)C(=O)N[C@@H](CC(C)C)C(=O)N[C@@H](CC(N)=O)C(=O)N[C@@H](CO)C(=O)N[C@H](C(=O)N[C@@H](CC(C)C)C(=O)N[C@H](C(=O)NCC(=O)NCC(=O)N[C@@H](CSCNC(C)=O)C(N)=O)[C@@H](C)O)C(C)C)C(C)C) [Ac--(SEQ ID NO: 85)--NH2]”, for which, in assay [1], the “Bronchodilator activity” value is 2.0 µg. Also, the EC50 in assay [2] is 0.45 nM.

For the substance “Ac--[Leu^5, p-F--Phe^6, Glu^8, Orn^12, Ala^17,19, Thr^25, Val^26, Thr^28, Gly^29,30, Cys(Acm)^31 ]--VIP (Ac-HSDAL[Phe(4-F)]TENYT[Orn]LRKQAAAKKYLNTVLTGG[Cys(Acm)]-NH2; SMILES CC(=O)NCSC[C@H](NC(=O)CNC(=O)CNC(=O)[C@@H](NC(=O)[C@H](CC(C)C)NC(=O)[C@@H](NC(=O)[C@@H](NC(=O)[C@H](CC(N)=O)NC(=O)[C@H](CC(C)C)NC(=O)[C@H](Cc1ccc(O)cc1)NC(=O)[C@H](CCCCN)NC(=O)[C@H](CCCCN)NC(=O)[C@H](C)NC(=O)[C@H](C)NC(=O)[C@H](C)NC(=O)[C@H](CCC(N)=O)NC(=O)[C@H](CCCCN)NC(=O)[C@H](CCCNC(=N)N)NC(=O)[C@H](CC(C)C)NC(=O)[C@H](CCCN)NC(=O)[C@@H](NC(=O)[C@H](Cc1ccc(O)cc1)NC(=O)[C@H](CC(N)=O)NC(=O)[C@H](CCC(=O)O)NC(=O)[C@@H](NC(=O)[C@H](Cc1ccc(F)cc1)NC(=O)[C@H](CC(C)C)NC(=O)[C@H](C)NC(=O)[C@H](CC(=O)O)NC(=O)[C@H](CO)NC(=O)[C@H](Cc1c[nH]cn1)NC(C)=O)[C@@H](C)O)[C@@H](C)O)[C@@H](C)O)C(C)C)[C@@H](C)O)C(N)=O) [Ac--(SEQ ID NO: 13)--NH2]”, in assay [1], the “Bronchodilator activity” value was 0.09 µg. Besides, in assay [2], the EC50 came to 0.68 nM.
